Test results reported in patent publication US11793816B2, “Methods for enhancing cytotoxic cancer therapy through inhibition of ATG4B” (Northwestern University, priority 2019, dated 2023).
Read-outs that look alike come from different tables or passages of the source.

Experiments:
[1] = Pharmacokinetic studies in mice: NSC185058 in plasma, brain and liver by LC-MS/MS; type: in vivo; conditions: for Cmax / AUC / half-life: plasma; for Cmax: read-out: average maximum plasma concentration (Cmax); for AUC: read-out: Area under the curve (AUC) for the plasma; for half-life: read-out: elimination half-life (converted)
Description: FIG. 1. NSC185058 (NSC) effectively distributes to the plasma, the brain, and the liver with minimal toxicity in mice. (A) to (C) Mice were dosed with peanut oil vehicle or ATG4B antagonists NSC185058 at doses of 10 or 50 mg/kg body weight. Plasma, the brain, and the liver tissues were collected at the indicated time points. (A) Total concentrations of the NSC compound in plasma were measured by LC-MS/MS. The PK parameter of NSC in plasma was determined. (B) NSC levels in plasma were determined form 5 min to 24 hr post dosing. The chemical structure of NSC was shown. (C) NSC levels were determined in the plasma, the brain, and the liver tissues at 0.5 and 8 hr post dosing. (D) Hematoxylin and eosin stained section s of indicated organs that were treated with NSC (150 mg/kg body weight) or vehicle on Monday, Wednesday, and Friday for three weeks. Scale bars, 50 μm. n=3 mice/group/time point.
Athymic (Ncr nu/nu) mice were injected intraperitoneal (i.p.) with peanut oil vehicle or ATG4B antagonists NSC185058 (50 mg/kg body weight for high does group and 10 mg/kg body weight for low does group). Mouse blood was withdrawn by terminal cardiac puncture while the animals were anesthetized with isoflurane. Blood samples were collected in tubes containing K2EDTA as the anticoagulant at 5, 15, and 30 minutes; 1, 2, 4, 8, and 24 hours post-dose for treatment groups. Mouse brain and liver tissue were also collected from the study animals at 1, 2, 4, and 8 hours post-dose. Control group animals were sacrificed at 24 hours after vehicle injection. Blood samples were centrifuged within one hour of collection and plasma was frozen at approximately −80° C. until analyzed at for concentration of the drug. Total concentrations of the NSC185058 compound in the plasma, the liver, and the brain were measured by LC-MS/MS at Illinois Institute of Technology Research Institute.
The NSC was administered at the dose of 10 or 50 mg/kg body weight in group of three mice. At the indicated time points spanning a 24 hrs period ([…], 0.5, 1, 2, 4, 8, and 24 hour), the plasma, the brain, and the liver tissues were collected. Plasmid and extracts from the brain and the liver were analyzed by LC-MS/MS using method developed at the Illinois Institute of Technology Research Institute (IITRI). […] Plasma exposure appears to increase beyond the hinge in dose for the dosing range tested. The elimination half-life was 2 and 4 for the 10 and 50 mg/kg dose, respectively. […] To examine whether NSC is tolerated in mouse, we investigated the effect induced by NSC in mouse behavior or by pathologic analysis of vital organs including the brain, the heart, the liver, the lung, the kidney, and the spleen. Mice underwent treatments on Monday, Wednesday, and Friday for three week with either peanut oil (vehicle) or NSC (150 mg/kg body weight) in peanut oil. […] Animal tissues were collected one week after the last dosing and subject for hematoxylin and eosin staining.

GSC83 and GBM43 cells = experiment: Annexin V/propidium iodide flow cytometry after NSC, IR, TMZ alone or combined; type: cell-based; conditions: NSC combined with IR or/and TMZ vs single treatments, 48 hours
[2] = tested on: LC3B lipidation and p62/SQSTM1 in GSCs and GBM cells; experiment: Immunoblot of autophagy markers after NSC, IR, TMZ; type: cell-based; conditions: NSC with IR or/and TMZ
Description: (A) GBM stem-like cells, GSCTS576, and patient-derived xenograft cells, GBM44, were treated with NSC, IR or/and TMZ at the indicated concentrations and combinations for 72 hours. Thereafter, cells were analyzed for cellular viability. Data are shown as mean±SD, n=3 of biological replicates. #, Combination vs. TMZ, P<0.01; &, Combination vs. IR, P<0.01; *, Combination vs. NSC, P<0.01 (B) GSCTS576 and GBM44 cells were treated with NSC, IR or and TMZ with indicated concentration or does for 48 hours, stained with Annexin V/PI, and analyzed by flow cytometry; n=3 biological replicates. Data are shown as mean±SD. #, Combination vs. TMZ, P<0.01; &, Combination vs. IR, P<0.01; *, Combination vs. NSC, P<0.01. (C) TS576 GSCs and GBM44 with indicated treatments were collected and analyzed for levels of the indicated proteins. […]
To determine the effect of combination treatment with NSC185058 and irradiation (IR) or/and TMZ, stem-like glioma cells (GSC83) and patient-derived xenograft GBM (GBM43) cells, were treated with NSC185058, TMZ, IR or the combination of two or three treatments and examined cellular proliferation modulation. […] Toward this end, we analyzed protein expression of autophagy marker protein LC3B and p62/SQSTM1, an established autophagy substrate, DNA damage indicator γH2AFX/γH2AX and apoptosis indicator cleaved CASP3/caspase-3 in both tested cell lines.

[3] = tested on: GSC JK83 orthotopic xenografts; experiment: GSC JK83 orthotopic brain tumor xenograft model (survival, BLI, tissue staining); type: in vivo, mice
Source text: FIG. 7. NSC enhance anticancer efficacy of AZD2014 in a patient-derived GSC xenograft model. […] Treatments were started at one week post-implantation. Bioluminescent (BLI) images were taken after the last treatment, and representative images are shown. Scale bar, photons/sec/cm2/steradian. (B) Kaplan-Meier of mice bearing GSC JK83 orthotopic xenografts with indicated treatments. (C) The brains of mice bearing orthotopic xenografts with indicated treatments were collected for immunohistochemical evaluation using indicating antibody. *P<0.05, **p<0.01, […]. Data are representative from three independent experiments with similar results.
Frozen brain tissue sections with GBM xenografts were dried and then fixed in were fixed in 4% paraformaldehyde (PFA) in PBS for 5 minutes. Tissue sections were blocked with AquaBlock (East Coast Bio, North Berwick, Me.) for an hour and then were probed with appropriate primary antibodies 4° C. overnight. Tissue sections were incubated with Alexa 488 or 594 labelled secondary antibodies (1:200) and DAPI-containing mounting solution Vectashield (Vector Laboratories), and representative images were photographed using a Nikon inverted microscope Eclipse Ti-U equipped with a digital camera.
To determine whether the enhancement of AZD2014 therapeutic efficiency by combination with NSC measured in vitro extends to an orthotopic model, GSC JK83 glioma spheres were employed to initiate intracerebral xenografts in mice.

[4] = tested on: intracranial PDX GBM39 tumor xenografts; experiment: Intracranial PDX GBM39 xenograft model (BLI, body weight, survival); conditions: monotherapy
Description: (A) Designs for Combination Therapy of Targeting Autophagy using NSC (150 mg/kg, Monday, Wednesday, and Friday), IR (2 Gy/day for 5 consecutive days), TMZ (100 mg/kg/day), RT+NSC, TMZ+NSC or RT+TMZ+NSC for PDX GBM39 model. (B) Body weight curves of different groups. Values represent the mean±SEM (n=8). *p<0.05, **p<0.01 compared to vehicle controls. (C) Relative changes in bioluminescent (BLI) signals of intracranial xenograft tumors with vehicle control or indicated treatment. n=8/group. *p<0.05, **p<0.01 compared to vehicle controls. Values represent the mean±SEM (n=8). *p<0.05, **p<0.01 compared to vehicle controls. (D) Representative bioluminescent images of mice-bearing intracranial xenografts with indicated treatments. NSC, IR, TMZ, and the indicated combinations. Treatments were started at day 7 post implantation. Mice were imaged after the last treatment. […] (E) Kaplan-Meier (left) and log-rank p value analyses (right) of mice bearing GSC 83 orthotopic xenografts with indicated treatments. […]
Athymic (Ncr nu/nu) mice at 6-8 week age were obtained from Taconic Farms. […] When Bioluminescent imaging (BLI) was detected in all animal, which were randomized into different treatment groups. […] Mice were monitored every day until the onset of neurological symptoms due to tumor burden. The tumor growth was monitored using the bioluminescent imaging (BLI) station (Caliper Life Sciences).

[5] = athymic Ncr nu/nu, mouse, IP 10 mg/kg
[6] = athymic Ncr nu/nu, mouse, IP 50 mg/kg

SMILES: S=C(Nc1ccccn1)c1ccccn1 [NSC185058, N-pyridin-2-yl-pyridine-2-carbothioamide]
- blood-brain barrier penetration [1]: excellent blood/brain barrier (BBB) penetration
- Cmax ([1]; athymic Ncr nu/nu, mouse, IP single dose 10 mg/kg): 2.6 µM
- Cmax ([1]; athymic Ncr nu/nu, mouse, IP single dose 50 mg/kg): 33 µM
- Kp ([1]; athymic Ncr nu/nu, mouse, IP, brain vs plasma, read-out: average brain tissue concentration relative to that in the plasma at the same time points): 0.4 to 1
- concentration at 0.5 h ([1]; athymic Ncr nu/nu, mouse, brain, 50 mg/kg, 0.5 hrs post IP dose, read-out: Average brain tissue concentration): 12000 ng/g
- concentration at 8 h ([1]; athymic Ncr nu/nu, mouse, brain, 50 mg/kg, 8 hrs post IP dose, read-out: Average brain tissue concentration): 4100 ng/g
- AUC [1, 5]: 2140 ng·h/mL
- half-life [1, 5]: 2 h
- AUC [1, 6]: 57200 ng·h/mL
- half-life [1, 6]: 4 h
- blood-brain barrier penetration ([1]; listed as NSC): penetrates the tumor blood-brain barrier at sufficient levels
- apoptotic cells (Annexin V/PI) (GSC83 and GBM43 cells): more apoptotic cells than single treatments
- sensitization to IR or/and TMZ (LC3B lipidation, p62) [2]: sensitized the tested cells to IR or/and TMZ by suppressing LC3B lipidation and increasing p62
- autophagic flux (LC3B puncta staining) in brain tumor xenografts ([3]; NSC (50 mg/kg) alone): slight impact on autophagic flux
- AZD2014-induced autophagy response in the brain ([3]; NSC (50 mg/kg) in the combination protocol): strongly attenuated AZD2014-induced autophagy response
- mouse survival ([3]; NSC (100 mg/kg), AZD2014 (50 mg/kg), alone or combined, vs control): modest but significant effects on mouse survival
- effect of NSC on inhibition efficiency of AZD2014 on xenograft growth ([3]; combination treatment): enhanced the inhibition efficiency of AZD2014
- survival analysis (growth-suppressive effects, FIG. 4E) [4]: not IR or NSC single treatment resulted in growth-suppressive effects
